Measured values taken from ChEMBL document CHEMBL1130240, “Synthesis and structure-activity profiles of A-homoestranes, the estratropones” (J Med Chem, 1997).
pIC50: −log10 of the molar value.

Assays:
Tubulin beta chain [1] = molecular target: T1, Tubulin beta chain (Bos taurus, UniProt Q6B856); test: (§1) Inhibition of tubulin polymerization; format: functional
Tubulin (Bos taurus) = Tubulin (Bos taurus) (UniProt Q6B856+Q862L2+Q862F3); test: Inhibition of tubulin polymerization by colchicine to that of compound (IC50colchicine/IC50 drug); format: functional
Tubulin beta chain [2] = molecular target: T1, Tubulin beta chain; test: as §1

T1 sequence (Q6B856 whole entry): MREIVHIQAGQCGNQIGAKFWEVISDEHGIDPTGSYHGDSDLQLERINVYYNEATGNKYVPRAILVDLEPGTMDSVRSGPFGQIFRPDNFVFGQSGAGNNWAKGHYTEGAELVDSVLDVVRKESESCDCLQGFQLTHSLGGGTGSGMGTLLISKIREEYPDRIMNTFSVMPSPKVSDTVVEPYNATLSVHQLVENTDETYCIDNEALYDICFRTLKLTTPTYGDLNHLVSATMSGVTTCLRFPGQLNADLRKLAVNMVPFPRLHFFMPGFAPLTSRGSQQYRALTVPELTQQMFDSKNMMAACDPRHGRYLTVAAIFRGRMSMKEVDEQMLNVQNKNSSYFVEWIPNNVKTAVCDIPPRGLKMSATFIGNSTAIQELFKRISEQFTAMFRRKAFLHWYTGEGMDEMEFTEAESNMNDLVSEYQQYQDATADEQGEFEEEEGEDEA

SMILES | pIC50 (Tubulin beta chain [1]) | Activity (Tubulin (Bos taurus)) | pIC50 (Tubulin beta chain [2])
C[C@]12CC[C@@H]3c4ccc(=O)ccc4CC[C@H]3[C@@H]1CC[C@@H]2O | 5.36 | 2.5 | 
COc1ccc2c(cc1=O)CC[C@@H]1[C@@H]2CC[C@]2(C)[C@@H](O)CC[C@@H]12 |  |  | 5.09
COc1ccc2c(cc1=O)[C@H]1CC[C@]3(C)[C@@H](O)CC[C@H]3[C@@H]1CC2 |  |  | 4.56
COc1cc2c(ccc1=O)CC[C@@H]1[C@@H]2CC[C@]2(C)[C@@H](O)CC[C@@H]12 |  |  | 4.53
COc1cc2c(cc1O)CC[C@@H]1[C@@H]2CC[C@]2(C)[C@@H](O)CC[C@@H]12 [2-METHOXYESTRADIOL] |  |  | 4.85
CCOc1cc2c(ccc1=O)[C@H]1CC[C@]3(C)[C@@H](O)CC[C@H]3[C@@H]1CC2 |  |  | 5.23

Next, values leading:

pIC50 (Tubulin beta chain [1]) | Activity (Tubulin (Bos taurus)) | pIC50 (Tubulin beta chain [2]) | SMILES
5.55 | 4 |  | C[C@]12CC[C@@H]3c4ccc(Cl)c(=O)cc4CC[C@H]3[C@@H]1CC[C@@H]2O
 |  | 5.14 | C[C@]12CC[C@@H]3c4cccc(=O)cc4CC[C@H]3[C@@H]1CC[C@@H]2O
 |  | 5.68 | COc1cc2c(ccc1=O)[C@H]1CC[C@]3(C)[C@@H](O)CC[C@H]3[C@@H]1CC2
5.01 | 1.1 |  | C[C@]12CC[C@@H]3c4ccc(=O)c(Cl)cc4CC[C@H]3[C@@H]1CC[C@@H]2O
 |  | 4.95 | C[C@]12CC[C@@H]3c4ccc(=O)c(Br)cc4CC[C@H]3[C@@H]1CC[C@@H]2O
5.54 | 3.9 |  | C[C@]12CC[C@@H]3c4ccc(Br)c(=O)cc4CC[C@H]3[C@@H]1CC[C@@H]2O
